Marks after values point to notes of the source that are not given here.
Key:
[1] = molecular target: T1, hERG potassium channel (Homo sapiens, UniProt Q12809); assay: hERG potassium channel inhibition, manual whole-cell patch clamp in CHO hERG cells; format: cell-based; conditions: for hERG (Inhibition rate at 3 μM concentration): CHO hERG cells, patch clamp
T1 construct: host or cells: CHO
Method: A Sixty-Third Embodiment: hERG Potassium Channel Inhibition Activity Experiment
The cells used in this assay were CHO cell lines transfected with hERG cDNA and stably expressing the hERG channel (supplied by Sophion Bioscience, Denmark). The cells were cultured in medium containing the following components (all from Invitrogen): Ham's F12 medium, 10% (v/v) inactivated fetal bovine serum, 100 μg/ml hygromycin B, and 100 μg/ml Geneticin. 2.1.2CHO hERG cells were grown in a Petri dish containing the above culture solution, and cultured in an incubator containing 5% of CO2 at 37° C. 24 to 48 hours prior to electrophysiological experiments, CHO hERG cells were transferred to circular glass slides placed in petri dishes and grown under the same culture and culture conditions as above. The density of CHO hERG cells on each circular slide requires that most cells achieve independent, individual requirements.
2. Compound Treatment and Dilution
To obtain the IC50 of the compound, we selecte the following concentrations (30, 10, 3, 1, 0.3, and 0.1 μM) for testing. Prior to testing, the […] were first diluted to 10, 3, 1, 0.3, and 0.1 mM stock solution in gradual dilution with DMSO and then diluted to the final μM test concentration with extracellular fluid. The final concentration of DMSO in each of the other compound solutions was 0.1% except that the DMSO concentration in the 30 μM compound test solution was 0.3%. The positive control Cisapride (cishabili) was tested at a concentration of 0.1 μM. All compound solutions were sonicated and shaken for 5 to 10 minutes to ensure complete dissolution of the compound.
3. Electrophysiological Recording System and Data Analysis
This experiment uses a manual patch clamp system (HEKA EPC-10 signal amplifier and digital conversion system, purchased from HEKA Electronics, Germany) for the recording of whole cell currents. Round slide with CHO hERG cells on the surface was placed in an electrophysiology recording cell under an inverted microscope. The extracellular fluid was continuously perfused in the recording tank (about 1 ml per minute). The experimental procedure uses conventional whole-cell patch clamp current recording techniques. Unless otherwise stated, the experiments were carried out at regular room temperature (˜25° C.). The cells were clamped at a voltage of −80 mV. The cell clamp voltage was depolarized to +20 mV to activate the hERG potassium channel, and after 5 seconds it was clamped to −50 mV to eliminate inactivation and generate tail current. The tail current peak was used as the value of the hERG current magnitude. After the hERG potassium current recorded in the above step was stabilized under the continuous extracellular fluid perfusion in the recording tank, the drug to be tested can be superimposed and filled until the inhibitory effect of the drug on the hERG current reaches a steady state. Generally, the recent three consecutive current recording lines were recombined as a criterion for judging whether or not the state is stable. After reaching a steady state, extracellular fluid perfusion rinse until hERG current returns to the size before adding drug. One cell can test one or more drugs, or multiple concentrations of the same drug, but need to be flushed with extracellular fluid between different drugs. Cisapride (cisapride, purchased from Sigma) was used in the experiment as a positive control to ensure that the cells used were of normal quality. The test data was analysed by HEKA Patchmaster, Microsoft Excel and data analysis software provided by Graphpad Prism.

[2] = system: PKC; assay: Kinase selectivity assay (Caliper), PKC; format: biochemical; conditions: PKC versus Akt1
Method: (§1) A Sixty-Second Embodiment: Kinase Selectivity Assay Test Compound Configuration 1) DMSO was configured with 50× compound stock solution for use. 2) Each compound was diluted in a 96-well plate at a concentration gradient of 5 to 7 to ensure a drug volume of 10 μl per well, to 6 to 7 concentrations, while 100 μl of DMSO was added as a blank control group, and a negative control group without an enzyme substrate was added. 3) Another 96-well plate was prepared, and 10 μl of the above compound was added to 90 μl of 1×kinase base buffer and mixed for 10 min. The board to be tested was prepared: 1) Take a mixture of 5 μl to 384-well plates in a 96-well plate of the above configuration, and per compound has two replicate wells. Kinase Reaction: 1) Configurate a 2.5×kinase solution and add the corresponding 1×kinase base buffer; 2) Configurate a 2.5× polypeptide solution, add a FAM-labeled polypeptide and ATP in a 1×kinase base buffer; 3) 10 μl of 2.5× kinase solution was added to the 384-well plate to be tested, put at room temperature for 10 min, then 10 μl of 2.5× polypeptide solution was added, and after reacting at 28° C. for 1 h, 25 μl of reaction stop buffer was added. The Caliper program reads the plate and uses the data to obtain the IC50 value of the corresponding compound inhibiting kinase. […]

[3] = molecular target: PKA (Homo sapiens, UniProt P17612); assay: Kinase selectivity assay (Caliper), PKA; format: biochemical; conditions: PKA versus Akt1
Method: as §1

[4] = system: CEM-C1; assay: Tumour cell proliferation inhibition, MTT assay, CEM-C1; format: cell-based, human; conditions: Homo sapiens, CEM/C1, 72 h
[5] = molecular target: Akt2 (Homo sapiens, UniProt P31751); assay: Kinase selectivity assay (Caliper), Akt2; format: biochemical; conditions: Akt2 versus Akt1
Method: as §1

[6] = system: HGC27; assay: Tumour cell proliferation inhibition, MTT assay, HGC27; format: cell-based, human; conditions: Homo sapiens, HGC-27, 72 h
[7] = molecular target: T2, AKT1/PKBα (Homo sapiens, UniProt P31749); assay: Akt1 enzyme inhibitory activity, AKT1/PKBα KinEASE FP Fluorescein Green Assay; format: biochemical; conditions: fluorescence polarization kit assay; read-out: Akt1 IC50 (grade)
T2 construct: purchased
Summary of the method: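 Fluorescence polarization competition: AKT1 with STK Substrate 3 and ATP, 1 h at room temperature, then stop mix and anti-phosphoserine antibody/tracer, 4 h before FP read. Compounds diluted to 50 μM in DMSO before addition, triplicate wells; inhibition from polarization values, IC50 calculated and binned into grades.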

[8] = molecular target: Akt3 (Homo sapiens, UniProt Q9Y243); assay: Kinase selectivity assay (Caliper), Akt3; format: biochemical; conditions: Akt3 versus Akt1
Method: as §1

[9] = Oral pharmacokinetic experiment in SD rats; format: in vivo; conditions: oral administration
Method: […] The blood sampling times of the tail vein administered by intragastric administration were 0.25, 0.5, 1, 2, 4, 6, 8, 10, 24 hours; the times of blood collection by intravenous administration were 0.05, 0.1, 0.17, 0.5, 1, 2, 4, 6, 8, 10, 24 hours. 0.3 ml of whole blood was taken, and after centrifugation, 0.1 ml of plasma was taken and analysed by LC-MS.

[10] = system: human kidney cancer 786-O nude mice xenografts; assay: In vivo antitumour activity, human kidney cancer 786-O nude mice xenografts; conditions: 786-O xenograft; for Tumour volume D1: D 1 (start); for Tumour volume D1 / RTV: x ± SE; for Tumour volume D 21: D 21, x ± SE
Method: [Worded in the source for another cell line; this cell line is reported under the same test.] (§2) A Sixty-Fifth Embodiment: In Vivo Antitumour Activity of Compounds
(§3) 1) Establishment of a nude mouse xenograft model: 1×10^7 test tumour cells were injected into the armpit of nude mice, after three generations, HGC27 mouse tumour blocks were dissected and placed in a glass dish containing physiological saline, after the necrotic area was removed by incision, the tumour mass was cut into 1-2 mm^3 and inserted into the left axilla of the nude mouse with a trocar.
(§4) 2) Animal grouping and drug delivery arrangements: after the tumour grows to an average volume of 100-300 mm^3, 20 mice were randomly grouped according to the tumour volume, and the above test animals were given the corresponding test substances by intragastric administration at a dose of 10 mL/kg with once a day.
(§5) 3) Data measurement and statistics: The tumour volume was weighed and measured twice and dosing period was 21 days. On the 22nd day, after the body weight was weighed and the tumour volume was measured, the nude mice were sacrificed and the tumours were weighed to calculate the relative tumour volume (RTV), relative tumour growth rate (T/C) and tumour inhibition percentage (IR) for statistical testing. The calculation formula was as follows: (a) TV (tumour volume)=½×a×b^2, wherein a and b represent the length and width of the tumour respectively, (b) RTV (relative tumour volume)=Vt/V0, Where V0 is the tumour volume measured at the time of group administration (i.e. d0), Vt is the tumour volume at each measurement, (c) T/C (%)=TRTV/CRTV×100%, wherein TRTV is the RTV of treatment group, CRTV is the RTV of the solvent control group, (d) IR (%)=(1−TWt/TWc)×100%, wherein TWt is the tumour weight of the treatment group, and TWc is the tumour weight of the solvent control group.

[11] = system: human gastric cancer HGC27 nude mice xenografts; assay: In vivo antitumour activity, human gastric cancer HGC27 nude mice xenografts; conditions: HGC27 xenograft, 50 mg/kg intragastric once a day
Method: as §2, §3, §4, §5

[12] = system: human ovarian cancer SKOV3 nude mice xenografts; assay: In vivo antitumour activity, human ovarian cancer SKOV3 nude mice xenografts; conditions: SKOV3 xenograft, 50 mg/kg
[13] = rat, in vivo, 20 mg/kg, mean n = 3
[14] = same concentration (3 μM), ratio of inhibition rates

T1 sequence (Q12809 whole entry): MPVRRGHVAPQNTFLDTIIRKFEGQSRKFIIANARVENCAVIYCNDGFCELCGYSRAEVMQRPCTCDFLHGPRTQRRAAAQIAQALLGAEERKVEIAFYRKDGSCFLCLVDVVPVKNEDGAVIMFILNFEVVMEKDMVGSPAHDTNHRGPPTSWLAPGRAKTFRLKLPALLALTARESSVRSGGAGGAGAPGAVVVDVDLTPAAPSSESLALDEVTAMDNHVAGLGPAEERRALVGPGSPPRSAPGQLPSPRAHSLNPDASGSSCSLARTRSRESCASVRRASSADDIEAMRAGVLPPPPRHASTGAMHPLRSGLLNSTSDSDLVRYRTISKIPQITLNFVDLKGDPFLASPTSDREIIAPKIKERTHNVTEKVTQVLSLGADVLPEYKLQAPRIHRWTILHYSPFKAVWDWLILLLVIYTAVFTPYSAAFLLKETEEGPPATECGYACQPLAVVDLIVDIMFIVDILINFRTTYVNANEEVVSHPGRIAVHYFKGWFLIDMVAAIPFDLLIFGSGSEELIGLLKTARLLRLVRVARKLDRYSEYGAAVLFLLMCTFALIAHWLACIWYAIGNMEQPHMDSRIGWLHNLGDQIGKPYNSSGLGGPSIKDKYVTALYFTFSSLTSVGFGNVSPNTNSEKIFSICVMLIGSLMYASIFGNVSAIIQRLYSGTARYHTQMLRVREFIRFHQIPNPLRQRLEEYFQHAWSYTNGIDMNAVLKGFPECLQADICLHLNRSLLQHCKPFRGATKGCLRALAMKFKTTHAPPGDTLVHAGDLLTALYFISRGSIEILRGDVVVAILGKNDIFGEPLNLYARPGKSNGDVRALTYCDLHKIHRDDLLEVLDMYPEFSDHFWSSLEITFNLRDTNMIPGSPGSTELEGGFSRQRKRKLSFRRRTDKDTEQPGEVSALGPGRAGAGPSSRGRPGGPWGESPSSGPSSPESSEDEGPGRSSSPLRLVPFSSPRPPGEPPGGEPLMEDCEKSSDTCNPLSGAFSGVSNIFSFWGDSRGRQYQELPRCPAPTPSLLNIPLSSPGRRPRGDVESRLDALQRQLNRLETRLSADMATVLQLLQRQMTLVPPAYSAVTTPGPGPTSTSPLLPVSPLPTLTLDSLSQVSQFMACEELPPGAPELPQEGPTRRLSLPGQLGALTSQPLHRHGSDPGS
T2 sequence (P31749 whole entry): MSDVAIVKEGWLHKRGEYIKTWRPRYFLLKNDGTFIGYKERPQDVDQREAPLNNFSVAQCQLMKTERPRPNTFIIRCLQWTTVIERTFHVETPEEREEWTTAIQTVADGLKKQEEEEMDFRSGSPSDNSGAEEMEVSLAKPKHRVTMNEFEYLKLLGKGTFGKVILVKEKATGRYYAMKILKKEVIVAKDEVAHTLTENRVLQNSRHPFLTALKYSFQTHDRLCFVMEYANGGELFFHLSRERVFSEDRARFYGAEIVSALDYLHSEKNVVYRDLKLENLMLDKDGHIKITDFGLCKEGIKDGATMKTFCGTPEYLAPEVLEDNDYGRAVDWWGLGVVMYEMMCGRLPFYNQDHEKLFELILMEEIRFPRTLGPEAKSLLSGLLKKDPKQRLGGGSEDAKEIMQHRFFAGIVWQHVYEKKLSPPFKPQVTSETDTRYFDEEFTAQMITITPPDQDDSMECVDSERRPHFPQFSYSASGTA
Sequence of Akt3 (Q9Y243 whole entry): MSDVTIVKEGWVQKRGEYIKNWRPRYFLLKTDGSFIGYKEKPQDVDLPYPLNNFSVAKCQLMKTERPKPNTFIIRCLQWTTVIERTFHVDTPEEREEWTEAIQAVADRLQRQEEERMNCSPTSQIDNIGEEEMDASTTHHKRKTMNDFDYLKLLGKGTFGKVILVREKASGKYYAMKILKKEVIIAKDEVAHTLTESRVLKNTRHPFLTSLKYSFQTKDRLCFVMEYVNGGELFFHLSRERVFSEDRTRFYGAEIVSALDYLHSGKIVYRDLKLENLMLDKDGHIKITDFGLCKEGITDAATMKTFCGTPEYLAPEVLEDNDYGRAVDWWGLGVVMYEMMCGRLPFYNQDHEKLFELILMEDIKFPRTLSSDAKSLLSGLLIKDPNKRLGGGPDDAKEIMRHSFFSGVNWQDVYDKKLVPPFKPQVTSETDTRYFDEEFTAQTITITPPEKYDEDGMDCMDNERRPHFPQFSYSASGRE
Sequence of Akt2 (P31751 whole entry): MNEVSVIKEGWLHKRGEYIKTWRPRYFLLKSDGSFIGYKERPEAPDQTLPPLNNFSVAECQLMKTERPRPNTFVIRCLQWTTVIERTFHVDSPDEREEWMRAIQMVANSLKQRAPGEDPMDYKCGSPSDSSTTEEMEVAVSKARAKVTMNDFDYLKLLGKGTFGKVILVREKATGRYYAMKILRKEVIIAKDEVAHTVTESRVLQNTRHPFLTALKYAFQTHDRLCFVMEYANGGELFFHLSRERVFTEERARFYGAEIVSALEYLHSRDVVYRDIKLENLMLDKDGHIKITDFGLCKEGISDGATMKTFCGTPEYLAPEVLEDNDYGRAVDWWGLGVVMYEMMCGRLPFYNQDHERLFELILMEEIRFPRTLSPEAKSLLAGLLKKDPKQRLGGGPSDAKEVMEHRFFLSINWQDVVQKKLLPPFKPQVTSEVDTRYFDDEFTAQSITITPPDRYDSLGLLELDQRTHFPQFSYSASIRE

Cn1ncc(Cl)c1-c1cc(C(=O)N[C@H](CN)Cc2ccc(F)c(F)c2)oc1Cl [GSK2141795, reference compound]
hERG (Inhibition rate at 3 μM concentration) [1]: 50%
Kinase selectivity: (PKC inhibitory activity IC50)/(Akt1 inhibitory activity IC50) [2]: 28-times
Kinase selectivity: (PKA inhibitory activity IC50)/(Akt1 inhibitory activity IC50) [3]: 1.2-times

Cn1nccc1-c1cc(F)c(C(=O)N[C@@H]2CNCC[C@H]2c2ccc(F)c(F)c2)c(F)c1 [VII-12]
IC50 [4]: 210 nM
Kinase selectivity: (Akt2 inhibitory activity IC50)/(Akt1 inhibitory activity IC50) [5]: 5.5-times
Kinase selectivity: (PKA inhibitory activity IC50)/(Akt1 inhibitory activity IC50) [3]: 1.3-times
IC50 [6]: 50 nM
IC50 [7]: 10 to 50 nM
Kinase selectivity: (Akt3 inhibitory activity IC50)/(Akt1 inhibitory activity IC50) [8]: 4.1-times

Cn1nccc1-c1ccc(C(=O)N[C@@H]2CNCC[C@H]2c2ccc(F)c(F)c2)c(F)c1.O=C(O)C[C@H](O)C(=O)O [VII-30]
1/2 ([9]; 20 mg/kg, mean n = 3): 3.63 h
AUC0-inf ([9]; 20 mg/kg, mean n = 3): 2390 ng·h/mL
AUC0-t ([9]; 20 mg/kg, mean n = 3): 2350 ng·h/mL
improvement of AUC0-t over VII-1a ([9]; salt versus free form VII-1a): 58%
Cmax [9, 13]: 253 ng/mL
Tmax [9, 13]: 1.75 h
T/C(%) ([10]; 50 mg/kg): 22.86%
Tumour volume D1 ([10]; 50 mg/kg): 125 ± 14 mm^3
Tumour volume D 21 ([10]; 50 mg/kg): 328 ± 105** mm^3
RTV ([10]; 50 mg/kg): 2.62 ± 0.83
T/C(%) ([10]; 100 mg/kg): 9.26%
Tumour volume D1 ([10]; 100 mg/kg): 126 ± 13 mm^3
Tumour volume D 21 ([10]; 100 mg/kg): 127 ± 51** mm^3
RTV ([10]; 100 mg/kg): 1.06 ± 0.43
RTV [11]: 7.29 ± 3.03
T/C(%) [11]: 17.27%
Tumour volume D1 ([11]; D1 (start)): 215 ± 88 mm^3
Tumour volume D22 ([11]; D22): 1157 ± 452* mm^3
hERG (Inhibition rate at 3 μM concentration) [1]: 20%
hERG blocking effect relative to GSK2141795 [1, 14]: 0.4
hERG blocking effect relative to compound 31 (WO2015/144021A1) [1, 14]: 0.32
T/C(%) [12]: 32.96%
Tumour volume D1 ([12]; D 1 (start), x ± SE): 117 ± 65 mm^3
Tumour volume D22 ([12]; D 22, x ± SE): 248 ± 19* mm^3
RTV ([12]; x ± SE): 3.60 ± 2.67
